Assay results as given in patent US11214594B2, “Antimicrobial peptide having synergistic antibacterial effect with antibiotics on multidrug resistant bacteria, and use thereof” (priority 2016, dated 2022).
≈ marks a conversion by molar mass, not a printed value. Read-outs that look alike come from different tables or passages of the source. Where a SMILES comes first, the peptide text is derived from it. [ ]: non-standard residue; d: D form.

Tests used:
MDRAB 12035 = assay: MIC of antimicrobial peptide during combined treatment with antibiotic; assay type: cell-based, Acinetobacter baumannii
In short: (§1)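 Antibiotic MIC came from antibiotic dilutions added to bacteria (2×10^6 CFU/ml, MH medium) already combined with peptide serially diluted 2:1 from its own MIC. Swapping the roles of the two agents gave the peptide MIC.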

A. baumannii = assay: as above; assay type: cell-based, Acinetobacter baumannii
In short: as §1

E. coli [1] = assay type: cell-based, Escherichia coli; details: E. coli
In short: as §1

MDREC 1229 = assay type: cell-based, Escherichia coli
In short: as §1

E. coli [2] = assay: MIC of antibiotic during combined treatment with antimicrobial peptide; assay type: cell-based, Escherichia coli; details: for Antibiotic MIC, Erythromycin / Antibiotic MIC, Linezolid / Antibiotic MIC, Vancomycin: E. coli
In short: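 MIC values for mixed peptide plus antibiotic solutions were measured in MH medium.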

MDRST 8009 = assay type: cell-based, Salmonella typhimurium; details: agent alone
In short: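 Broth microdilution in MH medium: bacterial strains diluted to 2×10^6 CFU were mixed with equal volumes of peptide serially diluted twofold in MH medium.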

[3] = vancomycin 512 μg/ml (Conc./MIC 1/2)
[4] = vancomycin 1024 μg/ml (Conc./MIC 1)

CC[C@H](C)[C@H](NC(=O)[C@H](CCCCN)NC(=O)[C@H](Cc1c[nH]c2ccccc12)NC(=O)[C@@H](N)CCCNC(=N)N)C(=O)N[C@@H](Cc1ccccc1)C(=O)N[C@@H](CCCCN)C(=O)N[C@@H](CCCCN)C(=O)N[C@H](C(=O)N[C@H](CC(C)C)C(=O)N[C@@H](CCCCN)C(=O)N[C@@H](CC(C)C)C(=O)N[C@@H](CC(C)C)C(=O)N[C@@H](Cc1c[nH]cn1)C(=O)N[C@@H](CCC(=O)O)C(=O)N[C@@H](C)C(=O)N[C@@H](CCCCN)C(=O)N[C@@H](CCCCN)C(=O)N[C@@H](Cc1c[nH]c2ccccc12)C(N)=O)[C@@H](C)CC [PapMA-24, RWK IFK KIl KLL HEA KKW-NH2] (H-RWKIFKKI[dL]KLLHEAKKW-NH2; N-terminus assumed)
Peptide MIC during treatment with linezolid (MDRAB 12035; linezolid […] (Conc./MIC 1/2)): 1 µg/mL | Peptide MIC during treatment with linezolid (MDRAB 12035; linezolid […] (Conc./MIC 1/4)): 4 µg/mL | Peptide MIC during treatment with vancomycin (MDRAB 12035; [3]): 2 µg/mL | Peptide MIC during treatment with vancomycin (MDRAB 12035; [4]): 1 µg/mL | Peptide MIC during treatment with vancomycin (MDRAB 12035; vancomycin […] (Conc./MIC 1/4)): 4 µg/mL | Peptide MIC during treatment with vancomycin (MDRAB 12035; vancomycin […] (Conc./MIC 1/8)): 4 µg/mL | Peptide MIC during treatment with erythromycin (A. baumannii; erythromycin 4 μg/ml (Conc./MIC 1/8)): 8 µg/mL | Peptide MIC during treatment with erythromycin (A. baumannii; erythromycin 8 μg/ml (Conc./MIC 1/4)): 4 µg/mL | Peptide MIC during treatment with erythromycin (A. baumannii; erythromycin 16 μg/ml (Conc./MIC 1/2)): 4 µg/mL | Peptide MIC during treatment with erythromycin (A. baumannii; erythromycin 32 μg/ml (Conc./MIC 1)): 0 µg/mL | Peptide MIC during treatment with linezolid (A. baumannii; linezolid 32 μg/ml (Conc./MIC 1/8)): 8 µg/mL | Peptide MIC during treatment with linezolid (A. baumannii; linezolid 64 μg/ml (Conc./MIC 1/4)): 4 µg/mL | Peptide MIC during treatment with linezolid (A. baumannii; linezolid […] (Conc./MIC 1)): 0 µg/mL | Peptide MIC during treatment with linezolid (A. baumannii; linezolid […] (Conc./MIC 1/2)): 1 µg/mL | Peptide MIC during treatment with vancomycin (A. baumannii; [3]): 0.25 µg/mL | Peptide MIC during treatment with vancomycin (A. baumannii; [4]): 0 µg/mL | Peptide MIC during treatment with vancomycin (A. baumannii; vancomycin […] (Conc./MIC 1/4)): 0.5 µg/mL | Peptide MIC during treatment with vancomycin (A. baumannii; vancomycin […] (Conc./MIC 1/8)): 2 µg/mL | Peptide MIC (E. coli [1]; with Erythromycin […] (Conc./MIC 1)): 0 µg/mL | Peptide MIC (E. coli [1]; with Linezolid […] (Conc./MIC 1)): 0 µg/mL | Peptide MIC (E. coli [1]; with Vancomycin 1024 μg/ml (Conc./MIC 1)): 0 µg/mL | Peptide MIC during treatment with antibiotic (MDREC 1229; erythromycin 32 μg/ml (Conc./MIC 1/8)): 4 µg/mL | Peptide MIC during treatment with antibiotic (MDREC 1229; erythromycin 64 μg/ml (Conc./MIC 1/4)): 2 µg/mL | Peptide MIC during treatment with antibiotic (MDREC 1229; erythromycin […] (Conc./MIC 1)): 0 µg/mL | Peptide MIC during treatment with antibiotic (MDREC 1229; erythromycin […] (Conc./MIC 1/2)): 1 µg/mL | Peptide MIC during treatment with antibiotic (MDREC 1229; linezolid 64 μg/ml (Conc./MIC 1/8)): 4 µg/mL | Peptide MIC during treatment with antibiotic (MDREC 1229; linezolid 512 μg/ml (Conc./MIC 1)): 0 µg/mL | Peptide MIC during treatment with antibiotic (MDREC 1229; linezolid […] (Conc./MIC 1/2)): 1 µg/mL | Peptide MIC during treatment with antibiotic (MDREC 1229; linezolid […] (Conc./MIC 1/4)): 2 µg/mL | Peptide MIC during treatment with antibiotic (MDREC 1229; [3]): 2 µg/mL | Peptide MIC during treatment with antibiotic (MDREC 1229; [4]): 1 µg/mL | Peptide MIC during treatment with antibiotic (MDREC 1229; vancomycin […] (Conc./MIC 1/4)): 4 µg/mL | Peptide MIC during treatment with antibiotic (MDREC 1229; vancomycin […] (Conc./MIC 1/8)): 8 µg/mL | Synergistic effect of antibacterial activity with existing antibiotics compared with PapMA-1 (E. coli [2]; E. coli and MDREC1229): level similar to that of the PapMA-1 peptide | Antibiotic MIC, Erythromycin (E. coli [2]; erythromycin combined with peptide at 1 μg/ml): 64 µg/mL | Antibiotic MIC, Erythromycin (E. coli [2]; erythromycin combined with peptide at 2 μg/ml): 32 µg/mL | Antibiotic MIC, Erythromycin (E. coli [2]; erythromycin combined with peptide at 4 μg/ml): 16 µg/mL | Antibiotic MIC, Erythromycin (E. coli [2]; erythromycin combined with peptide at 6 μg/ml): 4 µg/mL | Antibiotic MIC, Erythromycin (E. coli [2]; erythromycin combined with peptide at 8 μg/ml): 2 µg/mL | Antibiotic MIC, Erythromycin (E. coli [2]; erythromycin combined with peptide at 16 μg/ml): 0.5 µg/mL | Antibiotic MIC, Erythromycin (E. coli [2]; erythromycin combined with peptide at 32 μg/ml): 0 µg/mL | Antibiotic MIC, Erythromycin (E. coli [2]; erythromycin combined with peptide at 64 μg/ml): 0 µg/mL | Antibiotic MIC, Linezolid (E. coli [2]; linezolid combined with peptide at 1 μg/ml): >128 µg/mL | Antibiotic MIC, Linezolid (E. coli [2]; linezolid combined with peptide at 2 μg/ml): 128 µg/mL | Antibiotic MIC, Linezolid (E. coli [2]; linezolid combined with peptide at 4 μg/ml): 64 µg/mL | Antibiotic MIC, Linezolid (E. coli [2]; linezolid combined with peptide at 6 μg/ml): 32 µg/mL | Antibiotic MIC, Linezolid (E. coli [2]; linezolid combined with peptide at 8 μg/ml): 32 µg/mL | Antibiotic MIC, Linezolid (E. coli [2]; linezolid combined with peptide at 16 μg/ml): 8 µg/mL | Antibiotic MIC, Linezolid (E. coli [2]; linezolid combined with peptide at 32 μg/ml): 0 µg/mL | Antibiotic MIC, Linezolid (E. coli [2]; linezolid combined with peptide at 64 μg/ml): 0 µg/mL | Antibiotic MIC, Vancomycin (E. coli [2]; vancomycin combined with peptide at 1 μg/ml): >128 µg/mL | Antibiotic MIC, Vancomycin (E. coli [2]; vancomycin combined with peptide at 2 μg/ml): >128 µg/mL | Antibiotic MIC, Vancomycin (E. coli [2]; vancomycin combined with peptide at 4 μg/ml): 128 µg/mL | Antibiotic MIC, Vancomycin (E. coli [2]; vancomycin combined with peptide at 6 μg/ml): 32 µg/mL | Antibiotic MIC, Vancomycin (E. coli [2]; vancomycin combined with peptide at 8 μg/ml): 16 µg/mL | Antibiotic MIC, Vancomycin (E. coli [2]; vancomycin combined with peptide at 16 μg/ml): 8 µg/mL | Antibiotic MIC, Vancomycin (E. coli [2]; vancomycin combined with peptide at 32 μg/ml): 0 µg/mL | Antibiotic MIC, Vancomycin (E. coli [2]; vancomycin combined with peptide at 64 μg/ml): 0 µg/mL | Minimal inhibitory concentration MIC (MDRST 8009): 32 µg/mL (≈ 13.5 µM)
